Experimental data: US20250359555A1, “STREPTOMYCES VENEZUELAE FOR THE BIOLOGICAL CONTROL OF PLANT DISEASES” (UNIVERSITA' DEGLI STUDI DI MODENA E REGGIO EMILIA (80%), priority 2022, published 2025)

Experiments:
Fusarium spp. [1] = assay: Field trial onion var. Elenka, emergence and bio-control under natural Fusarium spp. inoculum pressure (FC2020); format: in vivo; details: for number of emerged seedlings: control 182.50; for number of emerged plants: fourth survey (97 days after the sowing)
Protocol: (§1) In this experiment, onion var. Elenka was tested. The test experimental design was organized at randomized blocks for the 4 treatment types, each in duplicate. In the extended test carried out at an experimental field with high natural pressure of fungal inoculum of Fusarium spp., the experimental plots had the following dimensions: 1.8 m (width)×25 m (length) with four sowing rows per parcel The sowing was performed with mechanical seeder (mod. SPX 2015-Bassi Seminatrici, IT) at the density of 600,000 onion seeds per hectare. The surveys were carried out on a length of 20 meters, in the medial part of each respective plot. The recorded data of disease severity were subjected to statistical analysis of the variance (one-way ANOVA). The results were compared to the post hoc Tukey's HDS test.
In the preparation phase before the sowing, the fields were not treated with herbicides or fungicides. During the experimental test, carried out following the agronomical good practices, harmful bacteria and insects' infections were not observed, causing damages to the cultures during the experiment. The weeds were controlled according to the disciplinary regulation described in Cornell Vegetable Management Guidelines and Recommendations (Reiners et al., 2019).
Samples of symptomatic material such as onion roots and bulbs were withdrawn during the cultural season for isolating Fusarium-like fungal colonies and the subsequent identification thereof and confirmation of the etiological agent, through a preliminary analysis of conidial identification at the microscope, followed by a molecular analysis. The molecular identification was carried out through the amplification of the conserved region ITS by polymerase chain reaction (PCR) according to White et al., 1990. The amplification products were then purified and sequenced at Bio-Fab Research s.r.l. (Rome, IT). The nucleotide sequences of ribosomal DNA of the conserved region ITS (Internal Transcription Spaces) were then analyzed through the program for the research of sequence similarity in the international DNA database BLAST (Basic Local Alignment Search Tool;//www.ncbi.nlm.nih.gov/BLAST).

onion var. Elenka = assay: Field trial onion var. Elenka, agronomic features (phenological development) (FC2020); format: in vivo, Allium cepa
Protocol: as §1
For the assay description, experimental design, agronomic practices, see Example 7. Before sowing, the fields were not treated with herbicides or fungicides. During the experimental field trial, carried out according to the best agronomical practices, harmful bacteria and insects' infections were not observed, causing damages to the cultures during the experiment. The weeds were managed according to the disciplinary regulations described in Cornell Vegetable Management Guidelines and Recommendations (Reiners et al., 2019). […]

Fusarium spp. [2] = assay: Field trial onion var. Fundador, emergence and bio-control under natural Fusarium spp. inoculum pressure (FC2020); format: in vivo; details: first survey (18 days after the sowing), control 178.12
Protocol: as §1
For trial description, experimental design, agronomic practices, see Example 7. […]. The recorded data were subjected to statistical analysis of the variance (one-way ANOVA). The results were compared to the post hoc Tukey's HDS test.

fennel var. Crono [3] = assay: Commercial field trial fennel var. Crono, emergence and germination (AQ2020); format: in vivo, Foeniculum vulgare
Source text: In this experiment, the fennel var. Crono was used, in order to study the effect of Streptomyces sp. DLS 1568, applied as microbial coating agent, on the emergence and germination of the crop.
The test experimental design was organized at randomized blocks for the 4 treatment types, each in duplicate (replicate). In the experimental test carried out at a plot, the experimental parcels had the following dimensions: 1.5 m (width)×100 m (length) with four sowing rows per plot. The sowing was carried out with a mechanical seeder. During the experimental field trials, conducted according to the best agronomical practices, harmful bacteria and insects' infections were not observed, causing damages to the cultures during the experiment. Weeds were controlled according to the farms' integrated weed management.
The first survey was carried out 20 days after the sowing, assessing the whole length of each plots. The second survey was carried out 32 days after seed sowing and the third and last survey was done after one month from the second survey. The recorded data were subjected to the statistical analysis of the variance (one-way ANOVA). The results were compared to the post hoc Tukey's HDS test.

fennel var. Crono [4] = assay: Field trial fennel var. Crono, emergence, germination and vigor (AQ2021); format: in vivo, Foeniculum vulgare; details: for average vigor index: scale 1-4 (Table 8)
Protocol: For the field trial description, experimental design, and the applied agronomic practices, see Example 10.
For this experiment, sowing was carried out with mechanical seeder. The first survey was carried out 14 days after the sowing, assessing the whole length of each plot: 1.5 m (width)×100 m (length) with four sowing rows per plot. The second survey was carried out one month after sowing and the third and last survey two months after sowing, assessing both number of emerged plants and vigor according to the assessment scale described in Table 8. The recorded data were subjected to the statistical analysis of the variance (one-way ANOVA). The results were compared to the post hoc Tukey's HDS test.

[5] = first survey (18 days after the sowing)
[6] = second survey (42 days after the sowing)

Structure (SMILES)	number of emerged seedlings (Fusarium spp. [1]; [5])	number of emerged plants (Fusarium spp. [1])	number of plants emerged (Fusarium spp. [1]; [6])	plant height (onion var. Elenka; second survey) [cm]	number of plants emerged (Fusarium spp. [2])	Number of emerged plants, Survey 1 Average value (fennel var. Crono [3]; AQ2020, 20 days after the sowing, control 339.50)	Number of emerged plants, Survey 2 Average value (fennel var. Crono [3]; AQ2020, 32 days after sowing, after manual thinning, control 194.40)	Number of emerged plants, Survey 3 Average value (fennel var. Crono [3]; AQ2020, one month from the second survey, control 187.00)	Number of emerged plants, Survey 1 Average value (fennel var. Crono [4]; AQ2021, 14 days after the sowing, control 313.00)	Number of emerged plants, Survey 2 Average value (fennel var. Crono [4]; AQ2021, one month after sowing, after manual thinning, control 180.75)	average vigor index (fennel var. Crono [4]; AQ2021, second survey, control 2.34)	average vigor index (fennel var. Crono [4]; AQ2021, third survey, control 2.71)	Number of emerged plants, Survey 3 Average value (fennel var. Crono [4]; AQ2021, two months after sowing, control 173.00)	increase of the germinal emergence with respect to the control (Fusarium spp. [1]; [5]) [%]	increase of the germinal emergence with respect to the treatment with Streptomyces sp. SA51 (Fusarium spp. [1]; [5]) [%]	increase of the germinal emergence with respect to the treatment with fludioxonil (Fusarium spp. [1]; [5]) [%]	increase of number of emerged plants with respect to Streptomyces sp. SA51 (Fusarium spp. [1]; [6]) [%]	increase of number of emerged plants with respect to fludioxonil (Fusarium spp. [1]; [6]) [%]	number of leaves (onion var. Elenka; third survey)
N#Cc1c[nH]cc1-c1cccc2c1OC(F)(F)O2 [Fludioxonil, fludioxonil]	175.63	72.75	147.00	10.11	210.12	339.50	217.30	198.62	323.88	205.00	2.49	3.01	186.63						
O=[O+][O-] [Ozone]	214.63	119.17	207.88		185.87									17	26	22	51	41	4.69
